Laboratory results taken from patent publication US20130040912A1, “PIPERAZINOTRIAZINES AS PI3K INHIBITORS FOR USE IN THE TREATMENT ANTIPROLIFERATIVE DISORDERS” (UNIVERSITY OF BASEL, priority 2010, published 2013).
Read-outs that look alike come from different tables or passages of the source. One block for each molecule: values may come before it.

Legend:
melanoma cell line A2058 = assay: in cell Western inhibition assay on melanoma cell line A2058; format: cell-based; conditions: Homo sapiens, the smaller the value, the stronger the inhibition
Procedure: (§1) The inhibitor efficacy and the cell permeability of the compounds of the invention are measured by in cell Western inhibition assay on melanoma cell line A2058 and TSC2−/− MEFs cell line. Furthermore, in vitro PI3Kalpha inhibition is measured (Table 1).

TSC2-/- MEFs cell line = assay: in cell Western inhibition assay on TSC2-/- MEFs cell line; format: cell-based; conditions: for activity at 1 µM: in cell Western, the smaller the value, the stronger the inhibition, read-out: TSC2-/- MEFs cell inhibition pS6, % remaining activity; for selectivity to mTOR (in words): compared with ZSTK474 (4)
Procedure: as §1

PI3Kalpha = PI3Kalpha (Homo sapiens, UniProt P42336); assay: in vitro PI3Kalpha inhibition, Kinase Glo assay; format: biochemical; conditions: for remaining activity at 0.2 µM: Kinase Glo assay at 200 nM, % remaining activity, the smaller the value, the stronger the inhibition, read-out: In vitro PI3Kα, % remaining activity; for inhibitor activity against PI3K (in words): compared with ZSTK474 (4)
Procedure: as §1

PI3Kgamma isoform = PI3Kgamma isoform (Homo sapiens, UniProt P48736); assay: fluorescence correlation spectroscopy binding to PI3Kgamma; conditions: binding leads to an increase in diffusion time
Procedure: Fluorophore containing compound 13 can be used as a reference inhibitor by fluorescence correlation spectroscopy experiments in which the binding constants of novel inhibitors are determined. […] When the enzyme is saturated with compound 13, new possible ligands can be tested by observing the release of compound 13. This leads to a decrease in diffusion time.

[1] = read-out: A2058 cell inhibition pPKB/PKB, % remaining activity
[2] = read-out: A2058 cell inhibition pS6, % remaining activity

Chain of PI3Kalpha (P42336 whole entry, species assumed): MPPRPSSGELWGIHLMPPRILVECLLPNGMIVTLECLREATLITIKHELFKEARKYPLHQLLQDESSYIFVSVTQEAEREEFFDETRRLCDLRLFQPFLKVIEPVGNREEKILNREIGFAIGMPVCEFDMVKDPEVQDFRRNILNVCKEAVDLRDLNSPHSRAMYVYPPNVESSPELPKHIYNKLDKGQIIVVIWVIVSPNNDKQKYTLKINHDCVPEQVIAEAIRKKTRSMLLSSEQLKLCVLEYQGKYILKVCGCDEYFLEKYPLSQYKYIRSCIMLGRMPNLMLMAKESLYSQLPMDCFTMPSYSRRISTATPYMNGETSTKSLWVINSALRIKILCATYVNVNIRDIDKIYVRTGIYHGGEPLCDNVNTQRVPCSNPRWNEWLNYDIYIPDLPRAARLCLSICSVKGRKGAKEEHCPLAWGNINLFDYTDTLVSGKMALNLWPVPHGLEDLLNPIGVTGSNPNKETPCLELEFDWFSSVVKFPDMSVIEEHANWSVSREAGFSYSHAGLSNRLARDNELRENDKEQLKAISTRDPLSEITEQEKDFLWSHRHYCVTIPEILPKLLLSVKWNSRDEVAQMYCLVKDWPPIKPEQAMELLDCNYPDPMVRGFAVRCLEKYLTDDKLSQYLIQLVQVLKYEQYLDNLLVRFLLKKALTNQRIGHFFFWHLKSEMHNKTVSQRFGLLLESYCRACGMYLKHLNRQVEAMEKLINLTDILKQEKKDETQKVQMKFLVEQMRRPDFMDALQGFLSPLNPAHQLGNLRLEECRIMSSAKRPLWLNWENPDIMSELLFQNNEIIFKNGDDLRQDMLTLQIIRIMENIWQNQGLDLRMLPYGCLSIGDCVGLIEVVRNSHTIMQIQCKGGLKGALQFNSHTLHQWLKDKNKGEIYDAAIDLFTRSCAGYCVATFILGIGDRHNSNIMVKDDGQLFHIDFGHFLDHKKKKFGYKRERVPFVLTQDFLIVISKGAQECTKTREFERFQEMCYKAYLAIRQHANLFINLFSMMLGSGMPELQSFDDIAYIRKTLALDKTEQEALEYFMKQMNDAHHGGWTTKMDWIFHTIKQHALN
Chain of PI3Kalpha (P27986 whole entry partner, species assumed): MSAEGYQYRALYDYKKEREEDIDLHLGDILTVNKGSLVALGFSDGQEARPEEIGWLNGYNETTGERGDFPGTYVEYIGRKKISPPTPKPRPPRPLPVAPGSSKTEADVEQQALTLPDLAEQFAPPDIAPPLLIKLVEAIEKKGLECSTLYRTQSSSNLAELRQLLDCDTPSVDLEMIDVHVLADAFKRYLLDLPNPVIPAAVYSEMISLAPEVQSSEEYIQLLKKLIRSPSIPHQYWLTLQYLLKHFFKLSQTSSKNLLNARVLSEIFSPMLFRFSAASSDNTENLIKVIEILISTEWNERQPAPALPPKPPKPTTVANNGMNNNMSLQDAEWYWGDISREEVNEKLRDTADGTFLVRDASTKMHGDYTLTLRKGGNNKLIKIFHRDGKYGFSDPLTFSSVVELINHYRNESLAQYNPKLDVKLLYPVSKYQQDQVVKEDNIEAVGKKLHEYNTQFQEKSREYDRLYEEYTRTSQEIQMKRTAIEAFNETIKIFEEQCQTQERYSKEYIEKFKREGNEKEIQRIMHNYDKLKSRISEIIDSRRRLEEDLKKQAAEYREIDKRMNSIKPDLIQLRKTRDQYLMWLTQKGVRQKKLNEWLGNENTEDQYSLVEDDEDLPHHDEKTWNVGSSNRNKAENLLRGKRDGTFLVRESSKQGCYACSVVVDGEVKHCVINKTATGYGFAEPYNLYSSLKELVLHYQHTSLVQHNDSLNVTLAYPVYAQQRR
Chain of PI3Kgamma isoform (P48736 whole entry, the tested form may be a part, canonical isoform): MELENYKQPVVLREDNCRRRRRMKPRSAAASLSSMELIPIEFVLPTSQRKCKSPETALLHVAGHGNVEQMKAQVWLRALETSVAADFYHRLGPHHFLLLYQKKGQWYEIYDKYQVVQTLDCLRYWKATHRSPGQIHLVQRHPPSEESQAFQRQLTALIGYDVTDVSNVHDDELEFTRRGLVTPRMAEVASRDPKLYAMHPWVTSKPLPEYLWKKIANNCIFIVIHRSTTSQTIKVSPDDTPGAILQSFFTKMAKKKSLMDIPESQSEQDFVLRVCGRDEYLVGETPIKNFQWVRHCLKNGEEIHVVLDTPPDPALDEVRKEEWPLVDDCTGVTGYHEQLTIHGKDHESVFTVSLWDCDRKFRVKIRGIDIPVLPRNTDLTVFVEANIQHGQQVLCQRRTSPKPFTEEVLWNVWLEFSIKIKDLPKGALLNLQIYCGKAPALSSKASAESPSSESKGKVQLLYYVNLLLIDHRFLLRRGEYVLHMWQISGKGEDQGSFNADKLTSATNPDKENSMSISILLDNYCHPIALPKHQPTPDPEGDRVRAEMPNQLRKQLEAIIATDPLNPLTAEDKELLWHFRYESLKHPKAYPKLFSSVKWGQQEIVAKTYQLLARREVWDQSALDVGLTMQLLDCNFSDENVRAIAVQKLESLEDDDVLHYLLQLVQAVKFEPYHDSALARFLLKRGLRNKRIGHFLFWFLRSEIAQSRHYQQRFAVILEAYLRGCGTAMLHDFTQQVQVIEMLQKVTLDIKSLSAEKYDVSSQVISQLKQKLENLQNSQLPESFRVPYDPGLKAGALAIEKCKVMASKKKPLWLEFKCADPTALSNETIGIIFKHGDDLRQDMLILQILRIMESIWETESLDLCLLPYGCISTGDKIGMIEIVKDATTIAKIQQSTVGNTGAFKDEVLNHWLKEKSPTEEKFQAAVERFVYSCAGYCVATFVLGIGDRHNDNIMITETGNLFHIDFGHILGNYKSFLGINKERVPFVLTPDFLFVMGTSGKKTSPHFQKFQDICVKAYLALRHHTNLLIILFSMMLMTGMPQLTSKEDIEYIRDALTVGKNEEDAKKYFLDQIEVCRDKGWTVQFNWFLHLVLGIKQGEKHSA

remaining activity at 0.2 µM (PI3Kalpha): 45%
Structure (SMILES): CCCCCCN1CCN(c2nc(N3CCOCC3)nc(-n3c(C(F)F)nc4ccccc43)n2)CC1 [Compound 11, 4-(4-(2-(Difluoromethyl)-1H-benzo[d]imidazol-1-yl)-6-(4-hexylpiperazin-1-yl)-1,3,5-triazin-2-yl)morpholine]
activity at 1 µM (melanoma cell line A2058; [1]): 85.2 ± 3.71%
activity at 1 µM (melanoma cell line A2058; [2]): 74 ± 10.3%
activity at 1 µM (TSC2-/- MEFs cell line): 85.7 ± 5.71%

remaining activity at 0.2 µM (PI3Kalpha): 42%
Structure (SMILES): CCOCCN1CCN(c2nc(N3CCOCC3)nc(-n3c(C(F)F)nc4ccccc43)n2)CC1 [Compound 12, 4-(4-(2-(Difluoromethyl)-1H-benzo[d]imidazol-1-yl)-6-(4-(2-ethoxyethyl)piperazin-1-yl)-1,3,5-triazin-2-yl)morpholine]
activity at 1 µM (melanoma cell line A2058; [1]): 15.9 ± 2.46%
activity at 1 µM (melanoma cell line A2058; [2]): 24.4 ± 4.34%
activity at 1 µM (TSC2-/- MEFs cell line): 77.1 ± 4.62%

binding to PI3Kgamma isoform (in words) (PI3Kgamma isoform): binds to the PI3Kgamma isoform
activity (in words) (PI3Kalpha): active
remaining activity at 0.2 µM (PI3Kalpha): 13%
Structure (SMILES): O=C(CCCCCNC(=O)COc1ccc(/C=C/C2=[N+]3C(=Cc4ccc(-c5cccs5)n4[B-]3(F)F)C=C2)cc1)NCCN1CCN(c2nc(N3CCOCC3)nc(-n3c(C(F)F)nc4ccccc43)n2)CC1 [Compound 13, (E)-3-(4-(2-((6-((2-(4-(4-(2-(Difluoromethyl)-1H-benzo[d]imidazol-1-yl)-6-morpholino-1,3,5-triazin-2-yl)piperazin-1-yl)ethyl)amino)-6-oxohexyl)amino)-2-oxoethoxy)styryl)-5,5-difluoro-7-(thiophen-2-yl)-5H-dipyrrolo[1,2-c:2′,1′-f][1,3,2]diazaborinin-4-ium-5-uide]
activity at 1 µM (melanoma cell line A2058; [1]): 47.5 ± 5.48%
activity at 1 µM (melanoma cell line A2058; [2]): 57.3 ± 6.86%
activity at 1 µM (TSC2-/- MEFs cell line): 95.5 ± 9.81%

remaining activity at 0.2 µM (PI3Kalpha): 83%
Structure (SMILES): CN1CCN(c2nc(N3CCOCC3)nc(-n3cnc4ccccc43)n2)CC1 [Compound 17, reference compound]
activity at 1 µM (melanoma cell line A2058; [1]): 122 ± 2.58%
activity at 1 µM (melanoma cell line A2058; [2]): 83 ± 3.31%
activity at 1 µM (TSC2-/- MEFs cell line): 123 ± 5.78%

The remaining lines, values behind:

Structure (SMILES): FC(F)c1nc2ccccc2n1-c1nc(N2CCOCC2)nc(N2CCOCC2)n1 [Compound 4, 4,4′-(6-(2-(Difluoromethyl)-1H-benzo[d]imidazol-1-yl)-1,3,5-triazine-2,4-diyl)dimorpholine, reference compound]
activity at 1 µM (melanoma cell line A2058; [1]): 3.63 ± 1.1%
activity at 1 µM (melanoma cell line A2058; [2]): 22.5 ± 0.13%
activity at 1 µM (TSC2-/- MEFs cell line): 37.9 ± 4.21%
remaining activity at 0.2 µM (PI3Kalpha): 13%

Structure (SMILES): CN1CCN(c2nc(N3CCOCC3)nc(-n3c(C(F)F)nc4ccccc43)n2)CC1 [Compound 5, 4-(4-(2-(Difluoromethyl)-1H-benzo[d]imidazol-1-yl)-6-(4-methylpiperazin-1-yl)-1,3,5-triazin-2-yl)morpholine]
activity at 1 µM (melanoma cell line A2058; [1]): 4.13 ± 0.37%
activity at 1 µM (melanoma cell line A2058; [2]): 18.5 ± 1.7%
activity at 1 µM (TSC2-/- MEFs cell line): 67.3 ± 1.26%
selectivity to mTOR (in words) (TSC2-/- MEFs cell line): diminishing of selectivity to mTOR
activity (in words) (PI3Kalpha): substantially more active than compound 17
remaining activity at 0.2 µM (PI3Kalpha): 33%
inhibitor activity against PI3K (in words) (PI3Kalpha): Increasing of inhibitor activity against PI3K

Structure (SMILES): CCS(=O)(=O)N1CCN(c2nc(N3CCOCC3)nc(-n3c(C(F)F)nc4ccccc43)n2)CC1 [Compound 7, 4-(4-(2-(Difluoromethyl)-1H-benzo[d]imidazol-1-yl)-6-(4-(ethylsulfonyl)piperazin-1-yl)-1,3,5-triazin-2-yl)morpholine]
activity at 1 µM (melanoma cell line A2058; [1]): 30.7 ± 1.08%
activity at 1 µM (melanoma cell line A2058; [2]): 56.7 ± 10.6%
activity at 1 µM (TSC2-/- MEFs cell line): 104 ± 4.27%
selectivity to mTOR (in words) (TSC2-/- MEFs cell line): notable reduced
remaining activity at 0.2 µM (PI3Kalpha): 35%
inhibitor activity against PI3K (in words) (PI3Kalpha): slightly decreased

Structure (SMILES): C=CC(=O)N1CCN(c2nc(N3CCOCC3)nc(-n3c(C(F)F)nc4ccccc43)n2)CC1 [Compound 8, 1-(4-(4-(2-(Difluoromethyl)-1H-benzo[d]imidazol-1-yl)-6-morpholino-1,3,5-triazin-2-yl)piperazin-1-yl)prop-2-en-1-one]
activity at 1 µM (melanoma cell line A2058; [1]): 13 ± 0.01%
activity at 1 µM (melanoma cell line A2058; [2]): 23 ± 4.22%
activity at 1 µM (TSC2-/- MEFs cell line): 95 ± 7.44%
remaining activity at 0.2 µM (PI3Kalpha): 8%

Structure (SMILES): NCCN1CCN(c2nc(N3CCOCC3)nc(-n3c(C(F)F)nc4ccccc43)n2)CC1 [Compound 9, 2-(4-(4-(2-(Difluoromethyl)-1H-benzo[d]imidazol-1-yl)-6-morpholino-1,3,5-triazin-2-yl)piperazin-1-yl)ethanamine]
activity at 1 µM (melanoma cell line A2058; [1]): 16.5 ± 0.24%
activity at 1 µM (melanoma cell line A2058; [2]): 30.9 ± 4.06%
activity at 1 µM (TSC2-/- MEFs cell line): 89.9 ± 9.5%
remaining activity at 0.2 µM (PI3Kalpha): 50%

Structure (SMILES): C=CC(=O)NCCN1CCN(c2nc(N3CCOCC3)nc(-n3c(C(F)F)nc4ccccc43)n2)CC1 [Compound 10, N-(2-(4-(4-(2-(Difluoromethyl)-1H-benzo[d]imidazol-1-yl)-6-morpholino-1,3,5-triazin-2-yl)piperazin-1-yl)ethyl)acrylamide]
activity at 1 µM (melanoma cell line A2058; [1]): 3.99 ± 1.18%
activity at 1 µM (melanoma cell line A2058; [2]): 12.7 ± 1.69%
activity at 1 µM (TSC2-/- MEFs cell line): 74.5 ± 5.9%
remaining activity at 0.2 µM (PI3Kalpha): 20%
